Measurements taken from US20130028865A1, “Combination of a Macrocyclic Inhibitor of HCV, A Non-Nucleoside and a Nucleoside” (MEDIVIR AB, priority 2010, published 2013).
Where two headings read alike, the source gives them in different places.

Legend:
[1] = tested on: HCV RNA replication (HCV type 1b replicon in Huh-7 luc/neo cells); conditions: HCV replicon test; reported in WO2010/003658; cited from earlier work
[2] = tested on: HCV RNA replication (HCV type 1b replicon in Huh-7 luc/neo cells); experiment: HCV replicon assay (Huh-Luc, luciferase read-out); format: cell-based; conditions: Hepatitis C virus, Huh-7, 72 h, HCV replicon test, three days incubation
From the text: The EC50 ratio between the active ingredients of formula I, II and III in the combinations of the invention may vary. As used herein the term “EC50 ratio” refers to the ratio of the EC50 value of the compound of formula I to the EC50 value of the compound of formula II, and to the EC50 value of the compound of formula III, said EC50 values being obtained in the HCV replicon test. The latter in particular is the test method described hereinafter.
The in vitro antiviral activity against HCV of the compound of formula I or of formula II or of formula III can be tested in a cellular HCV replicon system based on Lohmann et al. (1999) Science 285:110-113, with the further modifications described by Krieger et al. (2001) Journal of Virology 75: 4614-4624 (incorporated herein by reference), which is further exemplified in the examples section. […]
The replicon cells were plated in 384 well plates in the presence of the test and control compounds which were added in various concentrations. Following an incubation of three days, HCV replication was measured by assaying luciferase activity (using standard luciferase assay substrates and reagents, and a Perkin Elmer ViewLux™ ultraHTS microplate imager). […] The inhibitory activity of the compound was monitored on the Huh-Luc cells, enabling a dose-response curve for each test compound. […]

Structure (SMILES)	EC50 [1]	EC50 [2]
COc1ccc2c(c1)C=C1Cn3c-2c(C2CCCCC2)c2ccc(cc23)C(=O)NS(=O)(=O)N(C)CCOCCN(C)C1=O [compound III]	0.07 µM	–
COc1ccc2c(O[C@@H]3C[C@H]4C(=O)N[C@]5(C(=O)NS(=O)(=O)C6CC6)C[C@H]5C=CCCCCN(C)C(=O)[C@@H]4C3)cc(-c3nc(C(C)C)cs3)nc2c1C (stereo in doubt) [compound I, (1R,4R,6S,15R,17R)-cis-N-[17-[2-(4-isopropylthiazole-2-yl)-7-methoxy-8-methyl-quinolin-4-yloxy]-13-methyl-2,14-dioxo-3,13-diazatricyclo[13.3.0.0^4,6]octadec-7-ene-4-carbonyl](cyclopropyl)sulfonamide]	–	0.008 µM
C[C@@H]1[C@H](n2ccc(N)nc2=O)O[C@@](CO)(N=[N+]=[N-])[C@H]1O [compound II, 4-amino-1-((2R,3S,4S,5R)-5-azido-4-hydroxy-5-hydroxymethyl-3-methyl-tetrahydrofuran-2-yl)-1H-pyrimidin-2-one]	–	5 µM
